Test results reported in ChEMBL document CHEMBL1667768, “Compounds containing 2-substituted imidazole ring for treatment against human African trypanosomiasis” (Bioorg Med Chem Lett, 2011).
In brackets after ≈: the same amount, converted by molar mass.

Columns and labels:
[1] = tested on: Trypanosoma brucei rhodesiense; test: Antimicrobial activity against Trypanosoma brucei rhodesiense after 48 hrs by proliferation assay; assay type: functional, organism-based
L6 = test: Cytotoxicity against rat L6 cells after 72 hrs by SRB assay; assay type: cell-based; details: L6, 72 h
[2] = Aqueous solubility of the compound at pH 1.5 at 25 degC; assay type: physicochemical
[3] = Aqueous solubility of the compound at pH 7.5 at 25 degC; assay type: physicochemical

IC50 [1] [µM] | solubility [2] [µM] | solubility [3] [µM] | SMILES | IC50 (L6) [µM]
27 | 4.3 (≈ 1.07 µg/mL) | 2.2 (≈ 0.546 µg/mL) | Cc1cc(OCc2ncc([N+](=O)[O-])n2C)ccn1 | 286
0.25 | 17.1 (≈ 5.37 µg/mL) | 5.9 (≈ 1.85 µg/mL) | CSc1ccc(OCc2nc(Cl)c([N+](=O)[O-])n2C)cc1 | 0.2
0.55 | 16.7 (≈ 5.98 µg/mL) | 5.8 (≈ 2.08 µg/mL) | CSc1ccc(OCc2nc(Br)c([N+](=O)[O-])n2C)cc1 | 0.8
0.37 | 22.8 (≈ 8.19 µg/mL) | 7.9 (≈ 2.84 µg/mL) | CSc1ccc(OCc2nc(S(=O)(=O)O)c([N+](=O)[O-])n2C)cc1 | 0.2
> 30 | 5.1 (≈ 1.42 µg/mL) | 2.5 (≈ 0.698 µg/mL) | CSc1ccc(OCc2nc([N+](=O)[O-])cn2C)cc1 | > 400
> 30 | 5.7 (≈ 1.33 µg/mL) | 2.1 (≈ 0.49 µg/mL) | Cn1c([N+](=O)[O-])cnc1COc1ccccc1 | > 400
> 30 | 4.8 (≈ 1.12 µg/mL) | 2.7 (≈ 0.632 µg/mL) | Cn1c([N+](=O)[O-])cnc1COc1ccncc1 | > 400
25 | 5.9 (≈ 1.55 µg/mL) | 3.1 (≈ 0.813 µg/mL) | CCc1cc(OCc2ncc([N+](=O)[O-])n2C)ccn1 | 243
0.67 | 5.6 (≈ 1.78 µg/mL) | 3.5 (≈ 1.11 µg/mL) | Cn1c([N+](=O)[O-])cnc1COc1ccnc(N2CCNCC2)c1 | 255
> 30 | 21 (≈ 5.64 µg/mL) | 8.7 (≈ 2.34 µg/mL) | CSc1ccc(OCc2ncc(Cl)n2C)cc1 | > 400
> 30 | 18.5 (≈ 5.79 µg/mL) | 8.5 (≈ 2.66 µg/mL) | CSc1ccc(OCc2ncc(Br)n2C)cc1 | > 400
> 30 | 25.4 (≈ 7.99 µg/mL) | 8.2 (≈ 2.58 µg/mL) | CSc1ccc(OCc2ncc(S(=O)(=O)O)n2C)cc1 | > 400
> 30 | 45.5 (≈ 13.8 µg/mL) | 25.5 (≈ 7.73 µg/mL) | CSc1ccc(OCc2nc(Cl)c(Cl)n2C)cc1 | > 400
> 30 | 37.5 (≈ 13 µg/mL) | 21.7 (≈ 7.54 µg/mL) | CSc1ccc(OCc2nc(Br)c(Cl)n2C)cc1 | > 400
> 30 | 41.2 (≈ 16.2 µg/mL) | 24.5 (≈ 9.61 µg/mL) | CSc1ccc(OCc2nc(Br)c(Br)n2C)cc1 | > 400
> 30 | 35.8 (≈ 12.4 µg/mL) | 24.9 (≈ 8.66 µg/mL) | CSc1ccc(OCc2nc(Cl)c(Br)n2C)cc1 | > 400
0.7 | 5.5 (≈ 1.54 µg/mL) | 2.5 (≈ 0.698 µg/mL) | CSc1ccc(OCc2ncc([N+](=O)[O-])n2C)cc1 [FEXINIDAZOLE] | 377
